For 74 compounds, LC retention time results are on record in the RepoRT retention time repository (doi:10.1016/j.jhazmat.2019.121712).

A short description of the series: Thermo Scientific Acclaim RSLC 120 C18, 100 × 2.1 mm, 2.2 µm, 30 °C; A: 90% water + 10% methanol + 0.01% formic acid + 5 mM ammonium formate; B: methanol + 0.01% formic acid + 5 mM ammonium formate; gradient (min/%B) 0.1/1 3/39 14/99.9 16/99.9. The conditions noted are these: stereoisomer not certain.
Take `CCN(CC)C(=O)N1CCN(C)CC1`: the LC retention time amounted to 3.16 min.

Regarding `CC(N)Cc1ccccc1` (centres undefined), the LC retention time amounted to 4.16 min.

For the compound `Cc1cccc2n[nH]nc12`, the LC retention time came out at 5.83 min.

Consider `CCC(C)C(=O)OC1CC(C)C=C2C=CC(C)C(CCC3CC(O)CC(=O)O3)C21` (centres undefined), for which the LC retention time was 12 min.

Take `CN(C)C1CSSSC1`: the LC retention time was 3.16 min.

Take `CC(C)NCC(O)COc1ccc(CCOCC2CC2)cc1` (centres undefined): the LC retention time is 6.68 min.

With `COC(=O)c1ccccc1S(=O)(=O)NC(=O)Nc1nc(C)nc(OC)n1`, the LC retention time stood at 6.31 min.

As to `CCCc1nc(C)c2c(=O)[nH]c(-c3cc(S(=O)(=O)N4CCCCC4)ccc3OCC)nn12`, the LC retention time worked out at 10.6 min.

For `CCCCCn1cc(C(=O)NC23CC4CC(CC(C4)C2)C3)c2ccccc21`, the LC retention time stood at 13.2 min.

As to `CC(COc1ccccc1)NC(C)C(O)c1ccc(O)cc1` (centres undefined), the LC retention time was 5.28 min.

Turning to `CCNC(=O)NC(=O)C(C#N)=NOC`, the LC retention time was found to be 5.6 min.

Regarding `CCCCCn1cc(C(=O)c2cccc3ccccc23)c2cc(O)ccc21`, the LC retention time came to 11.3 min.

`CC(=O)Nc1ccc(OCC(O)CNC(C)C)cc1` (centres undefined): the LC retention time turned out to be 3.34 min.

`CCCCc1oc2ccc(NS(C)(=O)=O)cc2c1C(=O)c1ccc(OCCCN(CCCC)CCCC)cc1`: the LC retention time was 10.1 min.

Take `CC(N)C12CC3CC(CC(C3)C1)C2` (centres undefined): the LC retention time amounted to 6.71 min.

Take `Cc1nnc(-c2ccccc2)c(=O)[nH]1`: the LC retention time came to 5.29 min.

For the compound `O=c1[nH]c2c(c(=O)n1C1CCCCC1)CCC2`, the LC retention time came out at 8.27 min.

Turning to `O=C(Oc1ccccc1)c1ccccc1C(=O)Oc1ccccc1`, the LC retention time stood at 11.2 min.

Regarding `CCOC(=O)C(CCc1ccccc1)NC1CCCN2CCCC(C(=O)O)N2C1=O` (centres undefined), the LC retention time worked out at 7.94 min.

In the case of `CC(C)NCC(O)COc1cccc2[nH]ccc12` (centres undefined), the LC retention time was found to be 3.89 min.

As for `CN1CCCCC1Cn1cc(C(=O)c2cccc3ccccc23)c2ccccc21` (centres undefined), the LC retention time is 8.09 min.

Turning to `CC(C)OC(=O)c1cc(C(=O)OC(C)C)cc([N+](=O)[O-])c1`, the LC retention time was 12 min.

`CC(CN(C)C)CN1c2ccccc2CCc2ccccc21` (centres undefined): the LC retention time stood at 8.31 min.

On to `CNC(=O)ON=CC(C)(C)S(C)(=O)=O`, for which the LC retention time worked out at 3.75 min.

Consider `COc1ccc(Cc2nccc3cc(OC)c(OC)cc23)cc1OC`, for which the LC retention time stood at 6.27 min.

On to `CCC(C)Nc1c([N+](=O)[O-])cc(C(C)(C)C)cc1[N+](=O)[O-]` (centres undefined), for which the LC retention time is 13 min.

As to `O=C(O)C1C2CCC(O2)C1C(=O)O` (centres undefined), the LC retention time worked out at 3.2 min.

In the case of `CCCC(C)(COC(N)=O)COC(=O)NC(C)C` (centres undefined), the LC retention time came to 7.99 min.

For `CC12CCC3C4CCC(=O)C=C4CCC3C1CCC2O` (centres undefined), the LC retention time worked out at 9.37 min.

Regarding `CC(=O)c1cc2cccc(OCC(O)CNC(C)C)c2o1` (centres undefined), the LC retention time was 4.93 min.

In the case of `COCCN(C(=O)CS(=O)(=O)O)c1c(C)cccc1C`, the LC retention time was 5.54 min.

Regarding `Cc1c(NC(C)C)c(=O)n(-c2ccccc2)n1C`, the LC retention time was found to be 5.72 min.

For `O=C(O)CCCn1cc(C(=O)c2cccc3ccccc23)c2ccccc21`, the LC retention time is 9.33 min.

Regarding `CC(C)OC(=O)Nc1ccccc1`, the LC retention time turned out to be 8.11 min.

As for `CN(C)CCCN1c2ccccc2Sc2ccccc21`, the LC retention time stood at 7.69 min.

For the compound `CCN(CC)C(=O)C1C=C2c3cccc4c3C(O)(CC2N(C)C1)C(=O)N4` (centres undefined), the LC retention time came to 4.23 min.

Regarding `CCCCCn1nc(C(=O)NC(C(N)=O)C(C)C)c2ccccc21` (centres undefined), the LC retention time is 10.5 min.

As to `CC[N+]1(C)C2CC(OC(=O)C(CO)c3ccccc3)CC1C1OC12` (centres undefined), the LC retention time is 3.87 min.

As for `CN(C)C(=O)NC1CCCCCCC1`, the LC retention time turned out to be 8.47 min.

For `N#CC1CCCN1C(=O)CNC12CC3CC(CC(O)(C3)C1)C2` (centres undefined), the LC retention time came out at 3.26 min.

As for `CCCN1CC(NS(=O)(=O)N(CC)CC)CC2Cc3c(O)cccc3CC21` (centres undefined), the LC retention time turned out to be 5.24 min.

Regarding `CCS(=O)CCSP(=O)(OC)OC` (centres undefined), the LC retention time amounted to 3.98 min.

With `CCN(CC)C(=O)Nc1ccc(OCC(O)CNC(C)(C)C)c(C(C)=O)c1` (centres undefined), the LC retention time was 5.24 min.

With `CCC(CO)NCCNC(CC)CO` (centres undefined), the LC retention time amounted to 1.93 min.

On to `CCOc1ccc2c3c1OC1C(O)C=CC4C(C2)N(C)CCC341` (centres undefined), for which the LC retention time was 4.08 min.

For the compound `CCOP(=S)(OCC)SCSCC`, the LC retention time turned out to be 11.4 min.

Consider `COc1cc(OC)nc(NC(=O)NS(=O)(=O)c2ncccc2C(=O)N(C)C)n1`, for which the LC retention time came out at 6.62 min.

As to `O=C(c1cccc2ccccc12)c1cn(CCN2CCOCC2)c2ccccc12`, the LC retention time turned out to be 9.88 min.

Take `CN1C(=O)C(O)CC1c1cccnc1` (centres undefined): the LC retention time turned out to be 3.13 min.

As for `OCc1cc(C(O)CNCCCCCCOCCCCc2ccccc2)ccc1O` (centres undefined), the LC retention time is 8.83 min.

On to `Nc1nc(N)nc(NC2CC2)n1`, for which the LC retention time came out at 2.78 min.

With `CC12CCC(=O)C=C1CCC1C2CCC2(C)C(OC(=O)c3ccccc3)CCC12` (centres undefined), the LC retention time was 13.8 min.

As for `Cn1c(=O)c2[nH]cnc2n(C)c1=O`, the LC retention time amounted to 3.93 min.

Regarding `O=C1C(CCS(=O)c2ccccc2)C(=O)N(c2ccccc2)N1c1ccccc1` (centres undefined), the LC retention time stood at 7.94 min.

Turning to `Cc1oc(C)c(C(=O)Nc2ccccc2)c1C`, the LC retention time turned out to be 8.79 min.

Consider `CC=CCC1=C(C)C(OC(=O)C2C(C=C(C)C)C2(C)C)CC1=O` (centres undefined), for which the LC retention time came to 12.9 min.

Turning to `CSC(C)=NOC(=O)N(C)SN(C)C(=O)ON=C(C)SC`, the LC retention time was 7.64 min.

Turning to `COc1cc(Cc2cnc(N)nc2N)cc(OC)c1OC`, the LC retention time came out at 4.06 min.

Regarding `CC(N)Cc1ccc2[nH]ccc2c1` (centres undefined), the LC retention time was determined as 4.07 min.

As to `CNC(=O)Oc1cc(C)c(C)c(C)c1`, the LC retention time was found to be 8.1 min.

For `CNC(=O)ON=C(CSC)C(C)(C)C`, the LC retention time came to 7.8 min.

For the compound `COc1cccc(C(=O)NN(C(=O)c2cc(C)cc(C)c2)C(C)(C)C)c1C`, the LC retention time was 9.56 min.

Regarding `CCCc1nc(C)c2c(=O)[nH]c(-c3cc(C(=O)CN4CCN(CC)CC4)ccc3OCC)nn12`, the LC retention time stood at 7.16 min.

As for `CNC(C)Cc1cccs1` (centres undefined), the LC retention time was found to be 3.69 min.

`CN(C)C(=O)C(c1ccccc1)c1ccccc1`: the LC retention time is 8.57 min.

`Cc1c(N(C)C)c(=O)n(-c2ccccc2)n1C`: the LC retention time was 5.21 min.

With `COc1ccc2c(c1O)-c1c3c(cc4c1C(C2)N(C)CC4)OCO3` (centres undefined), the LC retention time is 4.36 min.

As for `CN(C)c1ccc(N=Nc2ccccc2)cc1`, the LC retention time came out at 12.4 min.

For the compound `CCOP(=S)(OCC)Oc1cc(C)nc(N(CC)CC)n1`, the LC retention time is 12.3 min.

As to `Cc1ncc([N+](=O)[O-])n1C`, the LC retention time came out at 4.27 min.

On to `O=C1OC(c2ccc(O)cc2)(c2ccc(O)cc2)c2ccccc21`, for which the LC retention time is 7.06 min.

For `CCNC1C2CCC(C2)C1c1ccccc1` (centres undefined), the LC retention time was found to be 6.08 min.

On to `CCN(C(C)=O)c1cccc(-c2ccnc3c(C#N)cnn23)c1`, for which the LC retention time amounted to 6.61 min.

Consider `C1=CCC(c2cccnc2)NC1` (centres undefined), for which the LC retention time is 2.68 min.
